{"source": "patent US6436420B1", "about": "“High performance silver (I,III) oxide antimicrobial textile articles” (Marantech Holding, LLC, priority 2000, dated 2002)", "key": {"[1]": {"test_system": "Staphylococcus aureus 27543", "settings": "Staphylococcus aureus 27543, Gram Positive; cited from earlier work"}, "[2]": {"test_system": "Streptococcus-pyogenes 7958", "settings": "Streptococcus-pyogenes 7958, Gram Positive; cited from earlier work"}, "[3]": {"test_system": "Candida albicans 16404", "settings": "Candida albicans 16404, Yeast and Mold; cited from earlier work"}, "[4]": {"test_system": "Enterobacter cloacae 13047", "settings": "Enterobacter cloacae 13047, Gram Negative; cited from earlier work"}, "[5]": {"test_system": "Staphylococcus epidermidis 12228", "settings": "Staphylococcus epidermidis 12228, Gram Positive; cited from earlier work"}, "[6]": {"test_system": "Saccharomyces cerevisiae 2601", "settings": "Saccharomyces cerevisiae 2601, Yeast and Mold; cited from earlier work"}, "[7]": {"test_system": "Streptococcus agalactiae 27956", "settings": "Streptococcus agalactiae 27956, Gram Positive; cited from earlier work"}, "[8]": {"test_system": "Pseudomonas aeruginosa 9027", "settings": "Pseudomonas aeruginosa 9027, Gram Negative; cited from earlier work"}, "[9]": {"test_system": "all Gram Negative bacteria listed in Table 1", "settings": "same reasoning applied to PA marker", "text": "(§1) An independent medical researcher in Israel obtained a very virulent strain of Staph from a patient at the Shaarei Tzedek Hospital in Jerusalem. […] This Staph strain was utilized as the Staph source, and the otherwise exact test protocol described above was repeated. […] Only one test swatch was used for the Staph evaluation."}, "[10]": {"test_system": "all Gram positive bacteria listed in Table 1", "settings": "extrapolated from virulent Staph result", "text": "as §1"}, "[11]": {"test_system": "Bacillus subtilis 6633", "settings": "Bacillus subtilis 6633, Gram Positive; cited from earlier work"}, "[12]": {"test_system": "Staphylococcus aureus 0927", "settings": "Staphylococcus aureus 0927, Gram Positive; cited from earlier work"}, "[13]": {"test_system": "very virulent strain of Staph", "type": "cell-based", "settings": "calculated from inhibition zone being inversely proportional to MIC", "text": "as §1"}, "[14]": {"test_system": "Streptococcus faecium 10541", "settings": "Streptococcus faecium 10541, Gram Positive; cited from earlier work"}, "[15]": {"test_system": "Escherichia coll 25254", "settings": "Escherichia coll 25254, Gram Negative; cited from earlier work"}, "[16]": {"test_system": "Micrococcus lutena 9341", "settings": "Micrococcus lutena 9341, Gram Positive; cited from earlier work"}, "[17]": {"test_system": "Escherichia coll 10231", "settings": "Escherichia coll 10231, Gram Negative; cited from earlier work"}}}
{"smiles": "[Ag+].[Ag+].[Ag+].[Ag+].[O-2].[O-2].[O-2].[O-2]", "note": "[Ag4O4, tetrasilver tetroxide]", "values": [{"measurement": "MIC (Minimal Inhibitory Concentration)", "setting": "[1]", "value": 5.00, "unit": "PPM"}, {"measurement": "MIC (Minimal Inhibitory Concentration)", "setting": "[2]", "value": 2.50, "unit": "PPM"}, {"measurement": "MIC (Minimal Inhibitory Concentration)", "setting": "[3]", "value": "2.50-5.0 PPM"}, {"measurement": "MIC (Minimal Inhibitory Concentration)", "setting": "[4]", "value": 2.50, "unit": "PPM"}, {"measurement": "MIC (Minimal Inhibitory Concentration)", "setting": "[5]", "value": 0.625, "unit": "PPM"}, {"measurement": "MIC (Minimal Inhibitory Concentration)", "setting": "[6]", "value": 1.25, "unit": "PPM"}, {"measurement": "MIC (Minimal Inhibitory Concentration)", "setting": "[7]", "value": "1.25-5.00 PPM"}, {"measurement": "MIC (Minimal Inhibitory Concentration)", "setting": "[8]", "value": "1.25-2.50 PPM"}, {"measurement": "inhibition of all Gram Negative bacteria listed in Table 1", "setting": "[9]", "value": "inhibition"}, {"measurement": "inhibition of all listed Gram positive bacteria", "setting": "[10]", "value": "capable of inhibiting"}, {"measurement": "MIC (Minimal Inhibitory Concentration)", "setting": "[11]", "value": 5.00, "unit": "PPM"}, {"measurement": "MIC (Minimal Inhibitory Concentration)", "setting": "[12]", "value": "2.50-5.00 PPM"}, {"measurement": "MIC for the virulent Staph strain", "setting": "[13]", "value": "40.5-61.0 PPM"}, {"measurement": "MIC (Minimal Inhibitory Concentration)", "setting": "[14]", "value": 5.00, "unit": "PPM"}, {"measurement": "MIC (Minimal Inhibitory Concentration)", "setting": "[15]", "value": 2.50, "unit": "PPM"}, {"measurement": "MIC (Minimal Inhibitory Concentration)", "setting": "[16]", "value": "1.25-2.50 PPM"}, {"measurement": "MIC (Minimal Inhibitory Concentration)", "setting": "[17]", "value": 2.50, "unit": "PPM"}]}
